US10854312B2, “Selective peptide antagonists” (BIONIZ, LLC, priority 2013, dated 2020)
“Also recorded” adds a separate entry of the source. No end group written: not given here.

How the values were obtained:
Type in all cases: cell-based
[1] = molecular target: mouse GM-CSF (Mus musculus, UniProt P01587); assay: PT-18β proliferation assay (3H-thymidine), non-γc cytokine GM-CSF; conditions: 1 nM mouse GM-CSF, 15 μM BNZ132-1
[2] = tested on: IL-2/IL-15-induced proliferation of ex vivo human T-lymphocytes
Protocol: FIG. 7A, and FIG. 7B present effective inhibition of a combined function of target γc-cytokines by BNZ132-1. […] Human Peripheral T cells were prepared as described in the methodology section. Four hundred thousand cells (in 200 μl culture) were incubated with the cytokines and BNZ132-1 at the indicated concentrations for 24 h, and cellular proliferation was determined by the […] using the WST-1 reagent (Clontech). The Y-axis represents the OD450 values. The p values; 1 nM cytokine combination—No inhibition vs. anti-IL-2; 0.33, No inhibition vs. anti-IL-15; 0.13, No inhibition vs. anti IL-2+IL-15; 0.003. No inhibition vs. BNZ132-1; 0.021. 0.1 nM cytokine combination—No inhibition vs. anti-IL-2; 0.046, No inhibition vs. anti-IL-15; 0.057, No inhibition vs. anti IL-2+IL-15; 0.001, No inhibition vs. anti IL-2+15; 0.001, No inhibition vs.BNZ132-1; 0.001. The assay was performed in triplicate. […] Peripheral blood mononuclear cells were purified from the blood of a HAM-TSP patient and set up for a spontaneous proliferation assay as previously described36. The cellular proliferation was measured by the thymidine incorporation assay. The Y-axis represents the cpm values. Doses are on the X-axis; BNZ132-1, 3 and 0.3 μM. […] After 12 h incubation, OD450 was measured. […] Absorbance at 450 nm was read at 6 h after the addition of the WST-1 dye. […]

[3] = tested on: human IL-2; assay: NK92 cell proliferation assay (WST-1), IL-2; conditions: 24 h
Protocol: Human peripheral blood mononuclear cells were purified by the Ficoll-paque gradient centrifugation (GE-Healthcare) and stimulated by PHA (5 μg ml^−1, Sigma) for 48 h, then expanded with IL-2 (0.5 nM, Peprotech) for 48h, and then depleted of non-T cells by the Pan-T cell negative enrichment Ab cocktails (Miltenyi). The purified T cells were then fasted of IL-2 overnight prior to the proliferation assay by the tetrazolium dye method. Four hundred thousand cells (in 200 μl culture) were incubated with the cytokines and BNZ132-1 at the indicated concentrations for 24 h, and 20 μl WST1 reagent (Clontech) was added to each well. After 12 h incubation, OD450 was measured. The assay was performed in triplicate. […] NK 92 cells were cultured in human IL-2. Cells were washed to withdraw IL-2 for overnight and two hundred thousand cells (in 200 μl volume) were incubated with the indicated concentrations of the cytokine and BNZ132-1 for 24 h before 20 μl WST-1 reagent (Clontech) was added to each well to measure proliferative response. Absorbance at 450 nm was read at 6 h after the addition of the WST-1 dye. The assay was performed in triplicate. The assay was performed in triplicate and the figure represents a typical result out of 5 different HAM-TSP patients.
FIG. 8B, and FIG. 8C show the results of NK92 cell proliferation assay. NK92 cells responded to IL-2 and IL-15. […]

Sequence of mouse GM-CSF (P01587 18-141): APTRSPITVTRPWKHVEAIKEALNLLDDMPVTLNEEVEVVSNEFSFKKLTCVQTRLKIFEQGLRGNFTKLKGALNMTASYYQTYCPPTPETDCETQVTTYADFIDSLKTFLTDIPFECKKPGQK

## IKEFLQRFIHIVQSIINTS [BNZ132-1]
[1]
  inhibition of GM-CSF-induced proliferation of PT-18β cells: did not inhibit; also recorded: no inhibition; also recorded: no inhibition of non-γc cytokines
[2]
  IC50: 150 nM
[3]
  inhibition of IL-2-induced proliferation of NK92 cells: dose-dependent manner; also recorded: dose-dependent inhibition
